Experimental data as given in ChEMBL document CHEMBL1201862, “PubChem BioAssay data set” (2004).
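Five concentrations, 48 hours, 96-well plates. GI50 is the concentration that inhibits growth by half.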 The source made the active and inactive calls. No stated cut-off is given here; in the data, active = GI50 up to about 1.1 µM and inactive = higher.

What was measured:
Test in all cases: DTP human tumour cell line panel, 48 h
SNB-19 = tested on: SNB-19
K562 = tested on: K562
UO-31 = tested on: UO-31
HOP-92 = tested on: HOP-92
HCT-116 = tested on: HCT-116
A498 = tested on: A498
TK-10 = tested on: TK-10
SF-295 = tested on: SF-295
Malme-3M = tested on: Malme-3M
M19-MEL = tested on: M19-MEL
ACHN = tested on: ACHN
RXF 393 = tested on: RXF 393
M14 = tested on: M14
SF-539 = tested on: SF-539
SK-MEL-2 = tested on: SK-MEL-2
NCI-H522 = tested on: NCI-H522
MOLT-4 = tested on: MOLT-4

Measured: GI50

CCC1CN2CCc3cc(OC)c(OC)cc3C2CC1CC1c2cc(OC)c(OC)cc2CCN1C(=O)C1CCCN1C(=O)OCc1ccccc1 (stereo not drawn)
inactive: SNB-19 24.3 µM | K562 16.2 µM | UO-31 12.7 µM | HOP-92 10.2 µM | HCT-116 13.1 µM | A498 16.3 µM | TK-10 19.5 µM | SF-295 16.5 µM | Malme-3M 18.3 µM | M19-MEL 15.5 µM | ACHN 17.7 µM | RXF 393 10.4 µM | M14 17.1 µM | SF-539 18.7 µM | SK-MEL-2 17.2 µM

CC(O)c1ccc(C(O)/C(=N\NC(=O)c2ccncc2)c2nc3ccc([N+](=O)[O-])cc3nc2O)cc1 (stereo not drawn)
inactive: SNB-19 > 100 µM | K562 40.8 µM | UO-31 > 100 µM | NCI-H522 19.8 µM | HOP-92 > 100 µM | MOLT-4 > 100 µM | HCT-116 > 100 µM | SF-295 > 100 µM | Malme-3M > 100 µM | M19-MEL > 100 µM | ACHN 42.4 µM | RXF 393 > 100 µM | M14 > 100 µM | SF-539 37 µM

CC(C)C1CC2C(=O)N(c3ccccc3)C(=O)C2c2[nH]c3ccccc3c21 (stereo not drawn)
inactive: K562 4.85 µM | UO-31 17.3 µM | MOLT-4 11.2 µM | HCT-116 4.13 µM | A498 32 µM | TK-10 23.1 µM | SF-295 6.9 µM | Malme-3M 25.8 µM | M19-MEL 56.4 µM | ACHN 4.4 µM | RXF 393 21.3 µM | M14 38.5 µM | SF-539 13.8 µM | SK-MEL-2 35.2 µM

CCOc1ccccc1NC(=O)C(=O)CC(=O)c1sc(Nc2nnc(-c3ccc(Cl)c(Cl)c3)o2)nc1C
inactive: SNB-19 > 100 µM | K562 > 100 µM | UO-31 > 100 µM | HOP-92 > 100 µM | MOLT-4 > 100 µM | HCT-116 > 100 µM | A498 > 100 µM | TK-10 > 100 µM | SF-295 > 100 µM | Malme-3M > 100 µM | M19-MEL > 100 µM | ACHN > 100 µM | RXF 393 > 100 µM | M14 > 100 µM | SF-539 > 100 µM | SK-MEL-2 > 100 µM

COc1ccc(C(=O)C(c2ccc(OC)cc2)C2(O)C(=O)Nc3c2ccc(Cl)c3C)cc1 (stereo not drawn)
inactive: SNB-19 > 100 µM | K562 > 100 µM | UO-31 64.6 µM | NCI-H522 > 100 µM | MOLT-4 > 100 µM | HCT-116 > 100 µM | A498 > 100 µM | TK-10 > 100 µM | SF-295 > 100 µM | Malme-3M > 100 µM | M19-MEL > 100 µM | ACHN > 100 µM | RXF 393 94.2 µM | M14 > 100 µM | SK-MEL-2 > 100 µM

O=C(NCc1ccncc1)C1COc2cc(-c3cc(=O)c4ccccc4o3)ccc2O1 (stereo not drawn)
inactive: K562 > 100 µM | UO-31 > 100 µM | NCI-H522 > 100 µM | HOP-92 > 100 µM | MOLT-4 > 100 µM | HCT-116 > 100 µM | TK-10 > 100 µM | SF-295 > 100 µM | Malme-3M > 100 µM | M19-MEL > 100 µM | ACHN > 100 µM | RXF 393 > 100 µM | M14 > 100 µM | SF-539 > 100 µM | SK-MEL-2 > 100 µM

CC(=O)NN1C(=O)C(Cc2ccccc2)c2ccccc21 (stereo not drawn)
inactive: SNB-19 > 100 µM | K562 > 100 µM | UO-31 > 100 µM | HOP-92 > 100 µM | MOLT-4 > 100 µM | HCT-116 > 100 µM | A498 > 100 µM | TK-10 > 100 µM | SF-295 > 100 µM | Malme-3M > 100 µM | M19-MEL > 100 µM | ACHN > 100 µM | M14 > 100 µM | SF-539 > 100 µM | SK-MEL-2 > 100 µM

COc1ccc(OC)c(NC(=O)C(=O)CC(=O)c2sc(-n3nc(-c4ccccc4)cc3-c3ccccc3)nc2C)c1
inactive: SNB-19 > 100 µM | K562 > 100 µM | UO-31 > 100 µM | NCI-H522 > 100 µM | MOLT-4 > 100 µM | HCT-116 > 100 µM | A498 > 100 µM | TK-10 > 100 µM | SF-295 > 100 µM | Malme-3M > 100 µM | M19-MEL > 100 µM | RXF 393 > 100 µM | M14 > 100 µM | SF-539 > 100 µM | SK-MEL-2 > 100 µM

CC1(C2COC(=O)C2)SCCCS1 (stereo not drawn)
inactive: SNB-19 > 100 µM | UO-31 14.2 µM | NCI-H522 2.79 µM | HOP-92 > 100 µM | MOLT-4 > 100 µM | HCT-116 > 100 µM | TK-10 > 100 µM | SF-295 > 100 µM | Malme-3M > 100 µM | M19-MEL > 100 µM | ACHN > 100 µM | RXF 393 > 100 µM | M14 > 100 µM | SF-539 > 100 µM | SK-MEL-2 > 100 µM

N#C/C(=C\c1ccccc1F)C(=O)c1ccccc1
inactive: SNB-19 > 100 µM | K562 > 100 µM | UO-31 > 100 µM | NCI-H522 > 100 µM | HOP-92 > 100 µM | MOLT-4 > 100 µM | HCT-116 > 100 µM | A498 > 100 µM | TK-10 > 100 µM | SF-295 > 100 µM | Malme-3M > 100 µM | M19-MEL > 100 µM | ACHN > 100 µM | M14 > 100 µM | SF-539 > 100 µM | SK-MEL-2 > 100 µM

CC(C)(C)c1ccc2c(c1)S(=O)(=O)Nc1ccccc1NS(=O)(=O)c1cc(C(C)(C)C)ccc1OCCOCCOCCO2
inactive: SNB-19 > 100 µM | K562 > 100 µM | UO-31 > 100 µM | HOP-92 85.3 µM | MOLT-4 > 100 µM | HCT-116 > 100 µM | A498 52.5 µM | TK-10 > 100 µM | SF-295 71 µM | Malme-3M 33.5 µM | M19-MEL > 100 µM | ACHN > 100 µM | RXF 393 45.5 µM | M14 > 100 µM | SF-539 40 µM | SK-MEL-2 > 100 µM

CCSC(SCC)c1cc2c(cc1Br)OCO2
inactive: SNB-19 58.9 µM | K562 3.77 µM | UO-31 20.8 µM | NCI-H522 24 µM | HOP-92 17.8 µM | MOLT-4 11.9 µM | HCT-116 18.7 µM | A498 25.8 µM | TK-10 44.7 µM | SF-295 24.5 µM | M19-MEL 19.1 µM | ACHN 40.3 µM | RXF 393 26.7 µM | M14 16.9 µM | SF-539 16.1 µM | SK-MEL-2 18.9 µM

C#CCOCn1cnc2c(Cl)ncnc21
inactive: SNB-19 > 100 µM | K562 59.6 µM | UO-31 > 100 µM | NCI-H522 86.1 µM | HOP-92 > 100 µM | MOLT-4 67.5 µM | HCT-116 > 100 µM | A498 > 100 µM | TK-10 > 100 µM | SF-295 > 100 µM | Malme-3M > 100 µM | M19-MEL > 100 µM | ACHN > 100 µM | M14 > 100 µM | SF-539 > 100 µM | SK-MEL-2 > 100 µM
